Experiment [1] concerns HL-60. In words: Cytotoxicity against human HL60 cells after 2 days by MTT assay. Conditions: HL-60, 48 h. Type of experiment: functional, cell-based. (In general: Tetrazolium assays rely on reduction of a dye to a coloured formazan, in cell work by metabolically active cells.)
For experiment [2], the target named is T1, Proteasome Macropain subunit MB1 (Homo sapiens, UniProt P28074).
T1 sequence (P28074 whole entry): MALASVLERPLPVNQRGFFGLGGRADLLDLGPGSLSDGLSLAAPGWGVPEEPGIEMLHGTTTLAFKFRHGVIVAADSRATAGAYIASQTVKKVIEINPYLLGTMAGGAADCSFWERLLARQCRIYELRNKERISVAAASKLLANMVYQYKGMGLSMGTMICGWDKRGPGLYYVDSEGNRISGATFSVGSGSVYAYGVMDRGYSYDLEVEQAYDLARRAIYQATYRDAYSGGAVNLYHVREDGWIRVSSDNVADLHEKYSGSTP
In words: Inhibition of human erythrocyte 20s proteasome chymotrypsin-like activity using Suc-LLVY-MCA as substrate pretreated for 10 mins followed by substrate addition measured after 3 hrs by spectrophotometric method.

A word on the IC50: it is the midpoint of a concentration-inhibition curve. In the case of `C=C1CC[C@H]2C(C)(C)[C@H](O)CC[C@]2(C)[C@H]1CC1=C(O)C(=O)C2=C(C1=O)[C@@]13C=C[C@@H](O)[C@H](O)[C@]1(C2)C(=O)c1c(O)cc(C)cc1C3=O`, the concentration for half-maximal inhibition (IC50) worked out at 9.3 µM in experiment [1] and 18.5 µM in experiment [2].
